Patent US10363239B2, “Method for inhibiting growth of cancer cells” (Pain Therapeutics, Inc., priority 2013, dated 2019)
Like-named read-outs stand apart in the source and are kept apart here.

Assays:
mu opiate receptor (MOR) = experiment: MOR agonist activity using [35S]GTPγS binding assay in striatal membranes; type: biochemical; details: for MOR agonist activity ([35S]GTPγS binding), FLNA-Binding Compound as Agonist 1 μM + BFNA: 1 μM compound + 1 μM β-funaltrexamine
Outline: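 Striatal membranes (200 μg) were preincubated 5 min at 30 °C in HEPES pH 7.5 with 100 mM NaCl, 1 mM MgCl2 and 0.5 nM [35S]GTPγS, then 5 min more with 0.1–10 μM compound. Gαo was immunoprecipitated and bound radioactivity counted by scintillation.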

[1] = biological target: FLNA pentapeptide of SEQ ID NO: 1 (Bn-VAKGL) (Homo sapiens, UniProt P21333); experiment: FITC-NLX-based FLNA screening assay (inhibition of FITC-naloxone binding to Bn-VAKGL on streptavidin plates); details: 10 nM FITC-NLX
[2] = Series C-2, 0.1 μM compound, relative to DAMGO
[3] = Series C-2, 0.1 μM compound, [35S]GTPγS binding to Gαo, striatal membranes
[4] = Series C-2, 1 μM compound + 1 μM β-FNA
[5] = Series C-2, 1 μM compound + β-FNA, relative to DAMGO + BFNA
[6] = Series C-2, 1 μM compound, relative to DAMGO
[7] = Series C-2, 1 μM compound, [35S]GTPγS binding to Gαo, striatal membranes
[8] = FLNA-binding compound 0.01 μM, read-out: Percent Binding Inhibition
[9] = FLNA-binding compound 0.1 μM, read-out: Percent Binding Inhibition
[10] = FLNA-binding compound 1 μM, read-out: Percent Binding Inhibition
[11] = 0.1 μM compound relative to DAMGO
[12] = 1 μM compound + BFNA relative to DAMGO + BFNA
[13] = 1 μM compound relative to DAMGO
[14] = read-out: Percent Binding Inhibition, FLNA-binding compound 0.01 μM
[15] = read-out: Percent Binding Inhibition, FLNA-binding compound 0.1 μM
[16] = read-out: Percent Binding Inhibition, FLNA-binding compound 1 μM
[17] = Series B, 0.1 μM compound, relative to DAMGO
[18] = Series B, 0.1 μM compound, [35S]GTPγS binding to Gαo, striatal membranes
[19] = Series B, 1 μM compound + 1 μM β-FNA
[20] = Series B, 1 μM compound + β-FNA, relative to DAMGO + BFNA
[21] = Series B, 1 μM compound, relative to DAMGO
[22] = Series B, 1 μM compound, [35S]GTPγS binding to Gαo, striatal membranes

| Structure (SMILES) | % DAMGO (0.1 μM) (mu opiate receptor (MOR); [2]) | MOR agonist activity, percent [35S]GTPγS binding at the stated compound concentration (mu opiate receptor (MOR); [3]) | MOR agonist activity, percent [35S]GTPγS binding at the stated compound concentration (mu opiate receptor (MOR); [4]) | % DAMGO + BFNA (mu opiate receptor (MOR); [5]) | % DAMGO (1 μM) (mu opiate receptor (MOR); [6]) | MOR agonist activity, percent [35S]GTPγS binding at the stated compound concentration (mu opiate receptor (MOR); [7]) | inhibition at 0.01 µM [1, 8] | inhibition at 0.1 µM [1, 9] | inhibition at 1 µM [1, 10] | inhibition at 0.01 µM [1, 14] | inhibition at 0.1 µM [1, 15] | inhibition at 1 µM [1, 16] | also measured |
| --- | --- | --- | --- | --- | --- | --- | --- | --- | --- | --- | --- | --- | --- |
| CN1CCC2(CC1)NC(=O)CN2Cc1ccccc1 [Compound C0104M] | 99.5% | 188.2% | 143.8% | 296.5% | 96.3% | 238.9% | 51.4% | 54.1% | 55.2% |  |  |  |  |
| CC1CCC(C(C)C)C(OCC(O)CN2CC(C)CC(C)C2)C1 (stereo not drawn) [Compound A0008] |  |  |  |  |  |  | 34.5% | 33.5% | 39.8% |  |  |  | MOR agonist activity ([35S]GTPγS binding), FLNA-Binding Compound as Agonist 0.1 μM (mu opiate receptor (MOR); 0.1 μM compound): 163.8%; % DAMGO (0.1 μM) (mu opiate receptor (MOR); [11]): 109.6%; MOR agonist activity ([35S]GTPγS binding), FLNA-Binding Compound as Agonist 1 μM (mu opiate receptor (MOR); 1 μM compound): 235.0%; MOR agonist activity ([35S]GTPγS binding), FLNA-Binding Compound as Agonist 1 μM + BFNA (mu opiate receptor (MOR)): 133.9%; % DAMGO + BFNA (mu opiate receptor (MOR); [12]): 505.3%; % DAMGO (1 μM) (mu opiate receptor (MOR); [13]): 102.1% |
| CN1CCC2(CC1)NCC(=O)N2Cc1ccccc1 [Compound C0105M] | 104.7% | 198.1% | 73.1% | 150.7% | 88.8% | 220.3% |  |  |  | 55.7% | 62% | 68.8% |  |
| COc1ccc(C(=O)CC2c3c(cc4c(c3OC)OCO4)CC[N+]2(C)C)c(O)c1 (stereo not drawn) [Compound B0033] |  |  |  |  |  |  |  |  |  | 42.1% | 46.8% | 49.4% | % DAMGO (0.1 μM) (mu opiate receptor (MOR); [17]): 77.6%; MOR agonist activity, percent [35S]GTPγS binding at the stated compound concentration (mu opiate receptor (MOR); [18]): 149.3%; MOR agonist activity, percent [35S]GTPγS binding at the stated compound concentration (mu opiate receptor (MOR); [19]): 41.9%; % DAMGO + BFNA (mu opiate receptor (MOR); [20]): 95.4%; % DAMGO (1 μM) (mu opiate receptor (MOR); [21]): 69.2%; MOR agonist activity, percent [35S]GTPγS binding at the stated compound concentration (mu opiate receptor (MOR); [22]): 188.9% |
| CCCCN1CCC2(CC1)OCCN2S(=O)(=O)c1ccc(C(C)=O)cc1 [Compound C0101M] | 82.5% | 138.2% | 174.8% | 368.0% | 123.4% | 274.3% | 50.5% | 56.4% | 59% |  |  |  |  |
| CC1CN(CC(O)COc2ccc(Cl)cc2)CC(C)O1 (stereo not drawn) [Compound A0047] |  |  |  |  |  |  | 40.9% | 42.9% | 44.5% |  |  |  | MOR agonist activity ([35S]GTPγS binding), FLNA-Binding Compound as Agonist 0.1 μM (mu opiate receptor (MOR); 0.1 μM compound): 233.0%; % DAMGO (0.1 μM) (mu opiate receptor (MOR); [11]): 118.8%; MOR agonist activity ([35S]GTPγS binding), FLNA-Binding Compound as Agonist 1 μM (mu opiate receptor (MOR); 1 μM compound): 255.0%; MOR agonist activity ([35S]GTPγS binding), FLNA-Binding Compound as Agonist 1 μM + BFNA (mu opiate receptor (MOR)): 116.5%; % DAMGO + BFNA (mu opiate receptor (MOR); [12]): 157.6%; % DAMGO (1 μM) (mu opiate receptor (MOR); [13]): 92.4% |
| CCOc1ccc(C(=O)CC2c3c(cc4c(c3OC)OCO4)CC[N+]2(C)C)cc1F (stereo not drawn) [Compound B0020] |  |  |  |  |  |  |  |  |  | 38.1% | 45.5% | 50.6% | % DAMGO (0.1 μM) (mu opiate receptor (MOR); [17]): 30.1%; MOR agonist activity, percent [35S]GTPγS binding at the stated compound concentration (mu opiate receptor (MOR); [18]): 51.6%; MOR agonist activity, percent [35S]GTPγS binding at the stated compound concentration (mu opiate receptor (MOR); [19]): 24.9%; % DAMGO + BFNA (mu opiate receptor (MOR); [20]): 47.8%; % DAMGO (1 μM) (mu opiate receptor (MOR); [21]): 68.0%; MOR agonist activity, percent [35S]GTPγS binding at the stated compound concentration (mu opiate receptor (MOR); [22]): 181.6% |
